Test results from PubChem BioAssay AID248 (DTP/NCI, 2004).
Where “and” joins values, the source holds several entries; their conditions need not be identical. Equal entries are not always repeated. Inconclusive results and toxic doses are left out. Rule as the data show it: active = T/C of 150% or more; inactive = T/C below 125%.

Tested on: L1210 leukemia ip in BDF1 mice, survival T/C
Experiment: NCI In Vivo Anticancer Drug Screen. Data for tumor model L1210 Leukemia (intraperitoneal) in B6D2F1 (BDF1) mice
Settings: endpoint: mean survival time, higher = longer survival
Method in brief: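 Transplanted-tumor mice were given test agent; controls received vehicle only. Survival readings from the two groups were divided (treated over control).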

[1] = dose: 100.0 mg/kg/injection, schedule: Q01DX009 (ip), vehicle: saline
[2] = dose: 100.0 mg/kg/injection, schedule: Q01DX001 (ip), vehicle: saline
[3] = dose: 100.0 mg/kg/injection, schedule: Q04DX003 (ip), vehicle: saline
[4] = dose: 200.0 mg/kg/injection, schedule: Q01DX001 (ip), vehicle: saline
[5] = dose: 200.0 mg/kg/injection, schedule: Q04DX003 (ip), vehicle: saline
[6] = dose: 400.0 mg/kg/injection, schedule: Q01DX001 (ip), vehicle: saline
[7] = dose: 400.0 mg/kg/injection, schedule: Q04DX003 (ip), vehicle: saline
[8] = dose: 100.0 mg/kg/injection, schedule: Q01DX009 (ip), vehicle: Klucel (hydroxypropylcellulose) (HPC)
[9] = dose: 100.0 mg/kg/injection, schedule: Q04DX002 (ip), vehicle: Klucel (hydroxypropylcellulose) (HPC)
[10] = dose: 100.0 mg/kg/injection, schedule: Q04DX003 (ip), vehicle: Klucel (hydroxypropylcellulose) (HPC)
[11] = dose: 200.0 mg/kg/injection, schedule: Q04DX002 (ip), vehicle: Klucel (hydroxypropylcellulose) (HPC)
[12] = dose: 200.0 mg/kg/injection, schedule: Q04DX003 (ip), vehicle: Klucel (hydroxypropylcellulose) (HPC)
[13] = dose: 400.0 mg/kg/injection, schedule: Q04DX002 (ip), vehicle: Klucel (hydroxypropylcellulose) (HPC)
[14] = dose: 400.0 mg/kg/injection, schedule: Q04DX003 (ip), vehicle: Klucel (hydroxypropylcellulose) (HPC)
[15] = dose: 100.0 mg/kg/injection, schedule: Q01DX001 (ip), vehicle: carboxymethylcellulose (CMC)
[16] = dose: 200.0 mg/kg/injection, schedule: Q01DX001 (ip), vehicle: carboxymethylcellulose (CMC)
[17] = dose: 400.0 mg/kg/injection, schedule: Q01DX001 (ip), vehicle: carboxymethylcellulose (CMC)
[18] = dose: 100.0 mg/kg/injection, schedule: Q01DX001 (ip), vehicle: saline with Tween-80
[19] = dose: 200.0 mg/kg/injection, schedule: Q01DX001 (ip), vehicle: saline with Tween-80
[20] = dose: 400.0 mg/kg/injection, schedule: Q01DX001 (ip), vehicle: saline with Tween-80
[21] = dose: 100.0 mg/kg/injection, schedule: Q04DX002 (ip), vehicle: saline with Tween-80
[22] = dose: 200.0 mg/kg/injection, schedule: Q04DX002 (ip), vehicle: saline with Tween-80
[23] = dose: 400.0 mg/kg/injection, schedule: Q04DX002 (ip), vehicle: saline with Tween-80

Measured: T/C

CC1(C)N=C(N)N=C(N)N1c1ccc(OCC(=O)N2CCOCC2)cc1
inactive: dose: 12.5 mg/kg/injection, schedule: Q01DX009 (ip), vehicle: saline 106 % of control | dose: 25.0 mg/kg/injection, schedule: Q01DX009 (ip), vehicle: saline 102 % of control | dose: 50.0 mg/kg/injection, schedule: Q01DX009 (ip), vehicle: saline 95 % of control | [1] 96 % of control

O=C(CCCCCCCCCCBr)OCc1ccccc1
inactive: dose: 100.0 mg/kg/injection, schedule: Q01DX001 (ip), vehicle: saline sonified 103 % of control | dose: 200.0 mg/kg/injection, schedule: Q01DX001 (ip), vehicle: saline sonified 99 % of control | dose: 400.0 mg/kg/injection, schedule: Q01DX001 (ip), vehicle: saline sonified 105 % of control

NCCc1ccc(N)cc1
inactive: [2] 106 % of control and 92 % of control | [3] 95 % of control | [4] 106 % of control and 89 % of control | [5] 98 % of control | [6] 97 % of control and 92 % of control | [7] 101 % of control

O=C(O)c1ccccc1CBr
inactive: dose: 100.0 mg/kg/injection, schedule: Q01DX005 (ip), vehicle: Klucel (hydroxypropylcellulose) (HPC) 97 % of control | [8] 97 % of control | [9] 96 % of control | [10] 93 % of control | dose: 200.0 mg/kg/injection, schedule: Q01DX005 (ip), vehicle: Klucel (hydroxypropylcellulose) (HPC) 105 % of control | dose: 200.0 mg/kg/injection, schedule: Q01DX009 (ip), vehicle: Klucel (hydroxypropylcellulose) (HPC) 97 % of control | [11] 100 % of control | [12] 93 % of control | dose: 400.0 mg/kg/injection, schedule: Q01DX005 (ip), vehicle: Klucel (hydroxypropylcellulose) (HPC) 101 % of control | dose: 400.0 mg/kg/injection, schedule: Q01DX009 (ip), vehicle: Klucel (hydroxypropylcellulose) (HPC) 97 % of control | [13] 93 % of control | [14] 105 % of control

CC(=O)Nc1ccc(NC(=O)Nc2ccc(C)cc2[N+](=O)[O-])cc1
inactive: [10] 92 % of control | [12] 86 % of control | [14] 94 % of control

Nn1cnnc1N/N=C/c1ccccc1Cl
inactive: dose: 50.0 mg/kg/injection, schedule: Q01DX001 (ip), vehicle: carboxymethylcellulose (CMC) 94 % of control | [15] 96 % of control | [16] 94 % of control | [17] 90 % of control

CC1([N+](=O)[O-])COCOC1
inactive: [3] 103 % of control | [5] 95 % of control | [7] 94 % of control

CCCCCCCCCCCCC(=O)N1CCCCC1
inactive: dose: 100.0 mg/kg/injection, schedule: Q04DX002 (ip), vehicle: saline 91 % of control | dose: 200.0 mg/kg/injection, schedule: Q04DX002 (ip), vehicle: saline 102 % of control

COc1ccc(OC)c(C(=O)CSC(=S)OC(C)C)c1
inactive: [9] 96 % of control | [11] 92 % of control | [13] 96 % of control

NC(=O)C(NC(=O)c1ccccc1)SCc1ccccc1 (stereo not given)
inactive: dose: 25.0 mg/kg/injection, schedule: Q04DX002 (ip), vehicle: Klucel (hydroxypropylcellulose) (HPC) 98 % of control | dose: 50.0 mg/kg/injection, schedule: Q04DX002 (ip), vehicle: Klucel (hydroxypropylcellulose) (HPC) 95 % of control | [9] 95 % of control

c1ccc(Sc2cc(Sc3ccccc3)c3cccccc2-3)cc1
inactive: [15] 96 % of control | [16] 100 % of control | [17] 87 % of control

O=[N+]([O-])c1ccc(N=Cc2ccccc2O)cc1.O=[N+]([O-])c1ccc(N=Cc2ccccc2O)cc1.[Cu]
inactive: dose: 12.5 mg/kg/injection, schedule: Q01DX009 (ip), vehicle: saline with Tween-80 100 % of control | dose: 25.0 mg/kg/injection, schedule: Q01DX009 (ip), vehicle: saline with Tween-80 94 % of control | dose: 50.0 mg/kg/injection, schedule: Q01DX009 (ip), vehicle: saline with Tween-80 93 % of control

CN(CCC#N)c1ccc(/C=C(\C#N)C(N)=O)cc1
inactive: [18] 102 % of control | dose: 100.0 mg/kg/injection, schedule: Q04DX003 (ip), vehicle: saline with Tween-80 92 % of control and 93 % of control | [19] 102 % of control | dose: 200.0 mg/kg/injection, schedule: Q04DX003 (ip), vehicle: saline with Tween-80 100 % of control and 90 % of control | [20] 89 % of control | dose: 400.0 mg/kg/injection, schedule: Q04DX003 (ip), vehicle: saline with Tween-80 98 % of control and 90 % of control

CCCCC[CH2][Sn]([CH2]CCCCC)([CH2]CCCCC)[NH]S(=O)(=O)c1ccc(C)cc1
inactive: [21] 87 % of control | [22] 105 % of control | [23] 94 % of control

CC1CC(C)(C)N=C(CCCO)O1 (stereo not given)
inactive: dose: 50.0 mg/kg/injection, schedule: Q04DX002 (ip), vehicle: saline with Tween-80 104 % of control | [21] 96 % of control | [22] 104 % of control | [23] 100 % of control

CCC1([N+](=O)[O-])COP(=O)(OP2(=O)OCC(CC)([N+](=O)[O-])CO2)OC1 (stereo not given)
inactive: [2] 116 % of control | [4] 97 % of control | [6] 100 % of control

COc1c(O)c2c(=O)cc3c4c5c(cc(=O)c6c(O)c(OC)c(CC(C)O)c(c(c1CC(C)O)c24)c65)OCO3 (stereo not given)
inactive: [9] 109 % of control | [11] 102 % of control | [13] 102 % of control

Cc1cc(N(C)C)cc(C)c1C(=Nc1ccc(N=C(NO)c2c(C)cc(N(C)C)cc2C)cc1)NO
inactive: [2] 97 % of control | [4] 109 % of control

ClC1=NC(c2ccccc2)N2C(Cl)C12 (stereo not given)
inactive: [18] 103 % of control | dose: 100.0 mg/kg/injection, schedule: Q01DX009 (ip), vehicle: saline with Tween-80 104 % of control | [19] 95 % of control | dose: 200.0 mg/kg/injection, schedule: Q01DX009 (ip), vehicle: saline with Tween-80 98 % of control | [20] 95 % of control | dose: 400.0 mg/kg/injection, schedule: Q01DX009 (ip), vehicle: saline with Tween-80 104 % of control

S=P(NCc1ccccc1)(NCc1ccccc1)NCc1ccccc1
inactive: dose: 100.0 mg/kg/injection, schedule: Q04DX002 (ip), vehicle: gum acacia 97 % of control | dose: 200.0 mg/kg/injection, schedule: Q04DX002 (ip), vehicle: gum acacia 97 % of control | dose: 400.0 mg/kg/injection, schedule: Q04DX002 (ip), vehicle: gum acacia 94 % of control

CC(=O)OC1CCC2(C)C3=C(CCC2C1(C)C)C1(C)CCC(C(C)CCC=C(C)C)C1(C)CC3 (stereo not given)
inactive: dose: 50.0 mg/kg/injection, schedule: Q01DX009 (ip), vehicle: Klucel (hydroxypropylcellulose) (HPC) 102 % of control | [8] 94 % of control

CCCCCCCCCCCCCCSCCO
inactive: dose: 100.0 mg/kg/injection, schedule: Q01DX009 (ip), vehicle: carboxymethylcellulose (CMC) 103 % of control | dose: 200.0 mg/kg/injection, schedule: Q01DX009 (ip), vehicle: carboxymethylcellulose (CMC) 102 % of control

Cc1ccc(C)c(CNc2cc(=O)[nH]c(=O)[nH]2)c1
inactive: dose: 100.0 mg/kg/injection, schedule: Q01DX001 (ip), vehicle: Klucel (hydroxypropylcellulose) (HPC) 97 % of control | dose: 200.0 mg/kg/injection, schedule: Q01DX001 (ip), vehicle: Klucel (hydroxypropylcellulose) (HPC) 101 % of control | dose: 400.0 mg/kg/injection, schedule: Q01DX001 (ip), vehicle: Klucel (hydroxypropylcellulose) (HPC) 97 % of control

O=C(O)C(Oc1ccccc1O)C(=O)O
inactive: [3] 95 % of control | [5] 93 % of control

O=S(=O)(/C(Br)=C\c1ccccc1)c1ccccc1
inactive: [2] 103 % of control | [1] 104 % of control | [3] 98 % of control | [4] 102 % of control | dose: 200.0 mg/kg/injection, schedule: Q01DX009 (ip), vehicle: saline 110 % of control | [5] 101 % of control | [6] 102 % of control | dose: 400.0 mg/kg/injection, schedule: Q01DX009 (ip), vehicle: saline 98 % of control | [7] 98 % of control

O=C1CC2=C(CC(O)=CC=C2)C(=O)O1
inactive: [3] 104 % of control | [5] 100 % of control | [7] 93 % of control
